71 molecules from patent publication US10820591B2, “Substituted sulfonyl amides for controlling animal pests” (Bayer Aktiengesellschaft, priority 2016, dated 2020) can be followed below.

In the first assay the test system is Meloidogyne incognita. Put plainly: Meloidogyne incognita test (sand, lettuce, gall formation). Format: in vivo. Particulars: 20 ppm, after 14 days. The method, then: Meloidogyne incognita Test [table] To produce a suitable active compound preparation, 1 part by weight of active compound is mixed with the stated amount of solvent and the concentrate is diluted to the desired concentration with water. Vessels are filled with sand, active compound solution, an egg/larvae suspension of the southern root-knot nematode (Meloidogyne incognita) and lettuce seeds. The lettuce seeds germinate and the plants develop. The galls develop on the roots. After 14 days, the nematicidal efficacy in % is determined by the formation of galls. 100% means that no galls were found; 0% means that the number of galls on the treated plants corresponds to the untreated control.
For `COc1ccc(Cl)c(S(=O)(=O)NC(=O)c2cn(-c3cc(Cl)cc(Cl)c3)cn2)c1` [I-217], the “nematicidal efficacy (formation of galls)” value is recorded as 90%.

Still in this assay, the particulars now being: Meloidogyne incognita, 336 h, 20 ppm, after 14 days; read-out: nematicidal efficacy (formation of galls).
Turning to `COc1ccc(Cl)c(S(=O)(=O)NC(=O)c2cn(-c3cccc(Cl)c3)cn2)c1` [I-179], the pest or weed control at 20 ppm was determined as 90%. `O=C(NS(=O)(=O)c1ccccc1)c1cn(-c2cc(Cl)cc(Cl)c2)cn1` [I-180]: the pest or weed control at 20 ppm turned out to be 100%. Same read-out and setting: the same measure for `O=C(NS(=O)(=O)c1ccccc1Cl)c1cn(-c2cc(Cl)cc(Cl)c2)cn1` [I-181]: 100%; for `O=C(NS(=O)(=O)c1ccc(Cl)cc1)c1cn(-c2cc(Cl)cc(Cl)c2)cn1` [I-182]: 90%. As for `O=C(NS(=O)(=O)c1ccccc1Cl)c1cn(-c2ccccc2Cl)cn1` [I-183], the pest or weed control at 20 ppm worked out at 90%. The same measure, in the same setting: the same measure for `O=C(NS(=O)(=O)c1c(Cl)cccc1Cl)c1cn(-c2ccccc2Cl)cn1` [I-184]: 100%. Still for that read-out and setting: the same measure for `O=C(NS(=O)(=O)c1ccccc1Cl)c1cn(-c2ccc(Cl)cc2)cn1` [I-185]: 100%; for `O=C(NS(=O)(=O)c1c(Cl)cccc1Cl)c1cn(-c2ccc(Cl)cc2)cn1` [I-186]: 90%. The same measure, in the same setting: the same measure for `O=C(NS(=O)(=O)c1c(Cl)cccc1Cl)c1cn(-c2cc(Cl)cc(Cl)c2)cn1` [I-187]: 100%.

In the case of `COc1ccc(Cl)c(S(=O)(=O)NC(=O)c2cn(-c3cc(Cl)cc(Cl)c3)cn2)c1` [I-188], the pest or weed control at 20 ppm was determined as 100%. On the same count and under the same terms, the same measure for `O=C(NS(=O)(=O)c1ccc(Cl)cc1Cl)c1cn(-c2cc(Cl)cc(Cl)c2)cn1` [I-189]: 90%. With `COc1ccc(Cl)c(S(=O)(=O)NC(=O)c2cn(-c3ccc(Cl)cc3)cn2)c1` [I-190], the pest or weed control at 20 ppm was found to be 100%. In the case of `O=C(NS(=O)(=O)c1ccccc1Cl)c1cn(-c2ccccc2)cn1` [I-191], the pest or weed control at 20 ppm was found to be 100%. Consider `O=C(NS(=O)(=O)c1c(Cl)cccc1Cl)c1cn(-c2ccccc2)cn1` [I-192], for which the pest or weed control at 20 ppm stood at 100%. Take `O=C(NS(=O)(=O)c1ccccc1)c1cn(-c2ccc(Cl)c(Cl)c2)cn1` [I-193]: the pest or weed control at 20 ppm came to 100%. As for `O=C(NS(=O)(=O)c1ccccc1)c1cn(-c2ccc(C(F)(F)F)cc2Cl)cn1` [I-194], the pest or weed control at 20 ppm came to 100%. Still for that read-out and setting: the same measure for `O=C(NS(=O)(=O)c1ccccc1)c1cn(-c2cc(Cl)ccc2Cl)cn1` [I-195]: 100%. Still for that read-out and setting: the same measure for `O=C(NS(=O)(=O)c1ccccc1Cl)c1cn(-c2ccc(Cl)c(Cl)c2)cn1` [I-196]: 100%; for `O=C(NS(=O)(=O)c1c(Cl)cccc1Cl)c1cn(-c2ccc(C(F)(F)F)cc2Cl)cn1` [I-198]: 100%. Same read-out and setting: the same measure for `O=C(NS(=O)(=O)c1ccccc1)c1cn(-c2ccc(Cl)cc2Cl)cn1` [I-199]: 100%; for `O=C(NS(=O)(=O)c1ccccc1Cl)c1cn(-c2ccc(Cl)cc2Cl)cn1` [I-200]: 100%; for `O=C(NS(=O)(=O)c1ccc(Cl)cc1)c1cn(-c2ccc(Cl)cc2Cl)cn1` [I-201]: 80%. Take `O=C(NS(=O)(=O)c1ccc(Cl)cc1)c1cn(-c2ccc(Cl)c(Cl)c2)cn1` [I-202]: the pest or weed control at 20 ppm amounted to 70%. In the case of `O=C(NS(=O)(=O)c1ccccc1Cl)c1cn(-c2cc(Cl)ccc2Cl)cn1` [I-203], the pest or weed control at 20 ppm amounted to 100%. Turning to `O=C(NS(=O)(=O)c1ccc(Cl)cc1)c1cn(-c2cc(Cl)ccc2Cl)cn1` [I-204], the pest or weed control at 20 ppm was 100%.

`O=C(NS(=O)(=O)c1c(Cl)cccc1Cl)c1cn(-c2cc(Cl)ccc2Cl)cn1` [I-205]: the pest or weed control at 20 ppm amounted to 100%. Consider `O=C(NS(=O)(=O)c1c(Cl)cccc1Cl)c1cn(-c2ccc(Cl)cc2Cl)cn1` [I-206], for which the pest or weed control at 20 ppm was 100%. Regarding `O=C(NS(=O)(=O)c1cccc(Cl)c1)c1cn(-c2ccc(C(F)(F)F)cc2Cl)cn1` [I-207], the pest or weed control at 20 ppm was 100%.

In the case of `O=C(NS(=O)(=O)c1ccc(Cl)cc1Cl)c1cn(-c2ccc(Cl)cc2Cl)cn1` [I-208], the pest or weed control at 20 ppm is 100%. In the case of `Cc1ccc(-n2cnc(C(=O)NS(=O)(=O)c3ccccc3)c2)cc1` [I-209], the pest or weed control at 20 ppm was 90%. Still for that read-out and setting: the same measure for `Cc1ccc(-n2cnc(C(=O)NS(=O)(=O)c3ccccc3Cl)c2)cc1` [I-210]: 100%; for `COc1ccc(-n2cnc(C(=O)NS(=O)(=O)c3ccccc3)c2)cc1` [I-211]: 100%; for `Cc1ccc(-n2cnc(C(=O)NS(=O)(=O)c3c(Cl)cccc3Cl)c2)cc1` [I-212]: 90%. Still for that read-out and setting: the same measure for `COc1ccc(Cl)c(S(=O)(=O)NC(=O)c2cn(-c3ccc(C)cc3)cn2)c1` [I-213]: 90%; for `O=C(NS(=O)(=O)c1ccccc1Cl)c1cn(-c2ccc(F)cc2F)cn1` [I-215]: 100%. The same measure, in the same setting: the same measure for `COc1ccc(Cl)c(S(=O)(=O)NC(=O)c2cn(-c3ccc(Cl)cc3Cl)cn2)c1` [I-216]: 90%. As to `COc1ccc(Cl)c(S(=O)(=O)NC(=O)c2cn(-c3ccc(Cl)c(Cl)c3)cn2)c1` [I-218], the pest or weed control at 20 ppm was found to be 70%. For `COc1ccc(Cl)c(S(=O)(=O)NC(=O)c2cn(-c3ccc(C(F)(F)F)cc3Cl)cn2)c1` [I-219], the pest or weed control at 20 ppm worked out at 90%. As for `O=C(NS(=O)(=O)c1ccccc1)c1cn(-c2ccccc2F)cn1` [I-221], the pest or weed control at 20 ppm was found to be 90%. Same read-out and setting: the same measure for `O=C(NS(=O)(=O)c1c(F)cccc1F)c1cn(-c2cc(Cl)cc(Cl)c2)cn1` [I-222]: 100%; for `O=C(NS(=O)(=O)c1c(F)cccc1F)c1cn(-c2ccc(C(F)(F)F)cc2Cl)cn1` [I-223]: 100%; for `O=C(NS(=O)(=O)c1c(F)cccc1F)c1cn(-c2ccccc2OC(F)(F)F)cn1` [I-224]: 90%. Same read-out and setting: the same measure for `O=C(NS(=O)(=O)c1ccccc1Cl)c1cn(-c2ccccc2OC(F)(F)F)cn1` [I-225]: 100%; for `O=C(NS(=O)(=O)c1c(Cl)cccc1Cl)c1cn(-c2ccccc2OC(F)(F)F)cn1` [I-226]: 100%. The same measure, in the same setting: the same measure for `COc1ccc(Cl)c(S(=O)(=O)NC(=O)c2cn(-c3ccccc3OC(F)(F)F)cn2)c1` [I-227]: 100%; for `COc1ccc(Cl)c(S(=O)(=O)NC(=O)c2cn(-c3ccccc3F)cn2)c1` [I-228]: 90%; for `O=C(NS(=O)(=O)c1ccccc1Cl)c1cn(-c2ccccc2F)cn1` [I-229]: 100%. As for `O=C(NS(=O)(=O)c1cc(Cl)ccc1Cl)c1cn(-c2cc(Cl)cc(Cl)c2)cn1` [I-230], the pest or weed control at 20 ppm was 100%. Still for that read-out and setting: the same measure for `COc1ccc(Cl)cc1S(=O)(=O)NC(=O)c1cn(-c2cc(Cl)ccc2Cl)cn1` [I-231]: 100%; for `O=C(NS(=O)(=O)c1cc(Cl)ccc1Cl)c1cn(-c2ccccc2F)cn1` [I-232]: 100%; for `O=C(NS(=O)(=O)c1cc(F)ccc1F)c1cn(-c2cc(Cl)ccc2Cl)cn1` [I-233]: 100%. As for `O=C(NS(=O)(=O)c1cc(F)ccc1F)c1cn(-c2cc(Cl)cc(Cl)c2)cn1` [I-234], the pest or weed control at 20 ppm is 70%.

With `O=C(NS(=O)(=O)c1cc(C(F)(F)F)ccc1Br)c1cn(-c2cc(Cl)cc(Cl)c2)cn1` [I-235], the pest or weed control at 20 ppm came to 90%.

In the case of `O=C(NS(=O)(=O)c1ccccc1)c1cn(-c2cc(F)cc(Cl)c2)cn1` [I-236], the pest or weed control at 20 ppm amounted to 90%. Turning to `O=C(NS(=O)(=O)c1ccccc1)c1cn(-c2cc(F)cc(F)c2)cn1` [I-237], the pest or weed control at 20 ppm came to 90%.

Consider `O=C(NS(=O)(=O)c1ccccc1Cl)c1cn(-c2cc(F)cc(C(F)(F)F)c2)cn1` [I-238], for which the pest or weed control at 20 ppm stood at 90%. The same measure, in the same setting: the same measure for `O=C(NS(=O)(=O)c1c(Cl)cccc1Cl)c1cn(-c2cc(F)cc(C(F)(F)F)c2)cn1` [I-239]: 100%; for `O=C(NS(=O)(=O)c1ccccc1Cl)c1cn(-c2cc(F)cc(Cl)c2)cn1` [I-240]: 100%. On the same count and under the same terms, the same measure for `O=C(NS(=O)(=O)c1c(Cl)cccc1Cl)c1cn(-c2cc(F)cc(Cl)c2)cn1` [I-241]: 90%. For `O=C(NS(=O)(=O)c1ccccc1Cl)c1cn(-c2cccc(Cl)c2Cl)cn1` [I-242], the pest or weed control at 20 ppm was 100%.

`O=C(NS(=O)(=O)c1c(Cl)cccc1Cl)c1cn(-c2cccc(Cl)c2Cl)cn1` [I-243]: the pest or weed control at 20 ppm amounted to 100%.

On to `O=C(NS(=O)(=O)c1ccccc1Cl)c1cn(-c2c(Cl)cccc2Cl)cn1` [I-244], for which the pest or weed control at 20 ppm was 100%. On the same count and under the same terms, the same measure for `O=C(NS(=O)(=O)c1c(Cl)cccc1Cl)c1cn(-c2c(Cl)cccc2Cl)cn1` [I-245]: 100%; for `COc1ccc(Cl)c(S(=O)(=O)NC(=O)c2cn(-c3cccc(Cl)c3Cl)cn2)c1` [I-246]: 100%; for `COc1ccc(Cl)c(S(=O)(=O)NC(=O)c2cn(-c3cc(F)cc(Cl)c3)cn2)c1` [I-247]: 100%. Regarding `O=C(NS(=O)(=O)c1c(F)cccc1F)c1cn(-c2cccc(Cl)c2Cl)cn1` [I-248], the pest or weed control at 20 ppm worked out at 100%. Same read-out and setting: the same measure for `O=C(NS(=O)(=O)c1c(F)cccc1F)c1cn(-c2cc(F)cc(C(F)(F)F)c2)cn1` [I-249]: 100%; for `COc1ccc(Cl)c(S(=O)(=O)NC(=O)c2cn(-c3c(Cl)cccc3Cl)cn2)c1` [I-251]: 90%. Still for that read-out and setting: the same measure for `Cc1nc(C(=O)NS(=O)(=O)c2ccccc2Cl)cn1-c1ccccc1` [I-252]: 100%.

With `Cc1nc(C(=O)NS(=O)(=O)c2ccccc2)cn1-c1ccc(Cl)cc1` [I-256], the pest or weed control at 20 ppm is 100%.
